Measurements from the supplement of paper PMC10307832.

Tests used:
Test in all cases: relative viability (nuclei count vs DMSO), 5 days (fraction); higher = more cells survive
Pictilisib + Crizotinib = compound: CS(=O)(=O)N1CCN(Cc2cc3nc(-c4cccc5[nH]ncc45)nc(N4CCOCC4)c3s2)CC1 [Pictilisib] + C[C@@H](Oc1cc(-c2cnn(C3CCNCC3)c2)cnc1N)c1c(Cl)ccc(F)c1Cl [Crizotinib] (partner 1 µM)
Outline: (§1)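 Each reported value is a median over duplicate plates. It expresses relative viability: treated-well nuclei count divided by vehicle-well nuclei count. Lung cancer cell lines in 1536-well plates were dosed by pin tool a day after seeding, alone with one drug or with a fixed anchor-drug dose plus five library-drug doses (not always all listed) in √10 steps, and nuclei were counted after 5 days.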

MK-2206 + Palbociclib = compound: NC1(c2ccc(-c3nc4ccn5c(=O)[nH]nc5c4cc3-c3ccccc3)cc2)CCC1 [MK-2206] + CC(=O)c1c(C)c2cnc(Nc3ccc(N4CCNCC4)cn3)nc2n(C2CCCC2)c1=O [Palbociclib] (partner 0.5 µM)
Outline: as §1

MK-2206 + Pictilisib = compound: NC1(c2ccc(-c3nc4ccn5c(=O)[nH]nc5c4cc3-c3ccccc3)cc2)CCC1 [MK-2206] + CS(=O)(=O)N1CCN(Cc2cc3nc(-c4cccc5[nH]ncc45)nc(N4CCOCC4)c3s2)CC1 [Pictilisib] (partner 1 µM)
Outline: as §1

MK-2206 + Dasatinib = compound: NC1(c2ccc(-c3nc4ccn5c(=O)[nH]nc5c4cc3-c3ccccc3)cc2)CCC1 [MK-2206] + Cc1nc(Nc2ncc(C(=O)Nc3c(C)cccc3Cl)s2)cc(N2CCN(CCO)CC2)n1 [Dasatinib] (partner 0.075 µM)
Outline: as §1

MK-2206 + Olaparib = compound: NC1(c2ccc(-c3nc4ccn5c(=O)[nH]nc5c4cc3-c3ccccc3)cc2)CCC1 [MK-2206] + O=C(c1cc(Cc2n[nH]c(=O)c3ccccc23)ccc1F)N1CCN(C(=O)C2CC2)CC1 [Olaparib] (partner 8 µM)
Outline: as §1

Cell Line	relative viability (Pictilisib + Crizotinib; first compound 0.02 µM)	relative viability (Pictilisib + Crizotinib; first compound 0.06325 µM)	relative viability (Pictilisib + Crizotinib; first compound 0.6325 µM)	relative viability (Pictilisib + Crizotinib; first compound 2 µM)	relative viability (MK-2206 + Palbociclib; first compound 0.01 µM)	relative viability (MK-2206 + Palbociclib; first compound 0.03162 µM)	relative viability (MK-2206 + Palbociclib; first compound 0.3162 µM)	relative viability (MK-2206 + Palbociclib; first compound 1 µM)	relative viability (MK-2206 + Pictilisib; first compound 0.01 µM)	relative viability (MK-2206 + Pictilisib; first compound 0.03162 µM)	relative viability (MK-2206 + Pictilisib; first compound 0.3162 µM)	relative viability (MK-2206 + Pictilisib; first compound 1 µM)	relative viability (MK-2206 + Dasatinib; first compound 0.01 µM)	relative viability (MK-2206 + Dasatinib; first compound 0.03162 µM)	relative viability (MK-2206 + Dasatinib; first compound 0.3162 µM)	relative viability (MK-2206 + Dasatinib; first compound 1 µM)	relative viability (MK-2206 + Olaparib; first compound 0.01 µM)	relative viability (MK-2206 + Olaparib; first compound 0.03162 µM)	relative viability (MK-2206 + Olaparib; first compound 0.3162 µM)	relative viability (MK-2206 + Olaparib; first compound 1 µM)
201T	1.04	1.04	1.03	0.788	0.356	0.344	0.342	0.332	0.669	0.696	0.651	0.648	0.623	0.581	0.553	0.525	0.825	0.857	0.858	0.856
A549	0.694	0.729	0.436	0.199					0.496	0.494	0.394	0.304					0.389	0.439	0.333	0.125
A-427	0.979	0.829	0.908	0.603	0.512	0.585	0.507	0.524	0.766	0.676	0.732	0.717	0.698	0.735	0.698	0.596	0.724	0.704	0.78	0.699
ABC-1	0.96	1.2	1.2	0.507	0.809	0.669	0.641	0.605	0.629	0.728	0.721	0.701	0.499	0.534	0.388	0.399	0.898	0.841	1.1	1.08
BEN	0.8	1.07	0.817	0.58	0.493	0.516	0.522	0.498	0.573	0.621	0.63	0.571	0.265	0.332	0.321	0.362	1.06	1.2	1.14	1.02
CAL-12T	0.615	0.893	0.704	0.471	0.383	0.277	0.543	0.411	0.58	0.455	0.465	0.229	0.486	0.504	0.355	0.345	0.81	0.666	0.703	0.714
COR-L23	0.584	0.75	0.668	0.594	0.277	0.312	0.268	0.291	0.816	0.834	0.741	0.686	0.452	0.527	0.494	0.536	0.32	0.31	0.297	0.328
COR-L 105	0.814	0.913	0.988	0.418	0.428	0.436	0.441	0.408	0.381	0.414	0.408	0.425	0.411	0.409	0.305	0.289	0.774	0.7	0.57	0.749
Calu-6	0.751	0.969	0.728	0.582					0.93	0.895	0.86	0.873						0.592	0.653	0.614
ChaGo-K-1	1.17	1.21	1.08	0.947	0.961	0.98	0.937	0.932	0.914	0.981	0.692	0.401	0.61	0.721	0.55	0.447	0.404	0.422	0.413	0.429
EBC-1	0.205	0.211	0.213	0.175					0.459	0.314	0.176	0.164					0.362	0.685	0.484	0.175
EKVX	0.898	1.15	0.801	0.493	0.542	0.458	0.363	0.352	0.415	0.447	0.424	0.445	0.73	0.522	0.536	0.569	0.866	0.777	0.745	0.67
EMC-BAC-2	0.779	0.811	0.691	0.601	0.511	0.517	0.462	0.456	0.54	0.574	0.515	0.441	0.266	0.334	0.335	0.312	0.438	0.462	0.451	0.419
EPLC-272H	0.995	0.993	0.702	0.72	0.32	0.287	0.315	0.328	0.292	0.333		0.336	0.486	0.333	0.256	0.306	0.855	0.673	0.796	0.527
H3255	0.854	0.907	0.803	0.555	0.313	0.302	0.283	0.288	0.477	0.45	0.399	0.384	0.347	0.344	0.288	0.284	0.539	0.58	0.538	0.518
HARA	1.05	1.15	0.972	0.722	0.268	0.343	0.27	0.221	0.388	0.395	0.399	0.357	0.321	0.302	0.329	0.227	0.842	0.779	0.758	0.625
HCC-15	0.791	0.926	0.761	0.583	0.695	0.792	0.662	0.653	0.727	0.785	0.643	0.626	0.578	0.643	0.442	0.422	0.722	0.757	0.625	0.692

Cell Line	relative viability (Pictilisib + Crizotinib; first compound 0.02 µM)	relative viability (Pictilisib + Crizotinib; first compound 0.06325 µM)	relative viability (Pictilisib + Crizotinib; first compound 0.6325 µM)	relative viability (Pictilisib + Crizotinib; first compound 2 µM)	relative viability (MK-2206 + Palbociclib; first compound 0.01 µM)	relative viability (MK-2206 + Palbociclib; first compound 0.03162 µM)	relative viability (MK-2206 + Palbociclib; first compound 0.3162 µM)	relative viability (MK-2206 + Palbociclib; first compound 1 µM)	relative viability (MK-2206 + Pictilisib; first compound 0.01 µM)	relative viability (MK-2206 + Pictilisib; first compound 0.03162 µM)	relative viability (MK-2206 + Pictilisib; first compound 0.3162 µM)	relative viability (MK-2206 + Pictilisib; first compound 1 µM)	relative viability (MK-2206 + Dasatinib; first compound 0.01 µM)	relative viability (MK-2206 + Dasatinib; first compound 0.03162 µM)	relative viability (MK-2206 + Dasatinib; first compound 0.3162 µM)	relative viability (MK-2206 + Dasatinib; first compound 1 µM)	relative viability (MK-2206 + Olaparib; first compound 0.01 µM)	relative viability (MK-2206 + Olaparib; first compound 0.03162 µM)	relative viability (MK-2206 + Olaparib; first compound 0.3162 µM)	relative viability (MK-2206 + Olaparib; first compound 1 µM)
HCC-44	0.781	0.783	0.882	0.455	0.918	0.938	0.974	0.946	0.804	0.619	0.496	0.392					1.06	1	1.04	0.97
HCC-78	0.321	0.305	0.222	0.18	0.426	0.489	0.496	0.398	0.25	0.202	0.204	0.162	0.511		0.373	0.227	0.932	1.06	0.716	0.739
HCC-366	0.493	0.697	0.251	0.0577	0.392	0.38	0.225	0.244	0.19	0.124	0.126	0.12	0.696	0.68	0.434	0.222	0.367	0.472	0.328	0.322
HCC-827	0.901	0.991	0.921	0.548	0.568	0.542	0.292	0.344	0.982	1.11	0.899	1.01	0.476	0.272	0.258	0.362	0.671	0.678	0.506	0.523
IA-LM	0.649	0.75	0.628	0.534					0.299	0.256	0.26	0.141					0.869	0.791	0.993	0.781
NCI-H522					1.04	1.12	1.05	1.09					0.98	0.842	0.857	0.894	0.668	0.624	0.629	0.666
NCI-H596	0.91	1.05	0.631	0.354					0.446	0.386	0.324	0.345	0.669	0.662	0.577	0.505	0.745	0.698	0.732	0.688
NCI-H1299	0.99	1.03	1.05	0.933					0.832	0.728	0.744	0.769					0.967	1.04	1.05	1.02
NCI-H1395					0.65	0.664	0.485	0.526	0.653	0.677	0.462	0.498	0.435	0.399	0.413	0.362	0.492	0.49	0.418	0.411
NCI-H1563	0.924	0.889	0.761	0.581					0.625	0.665	0.633	0.626	0.492	0.449	0.406	0.407				
NCI-H1623													0.518	0.471	0.556	0.423				
NCI-H1648					0.229	0.269	0.301	0.331									1.01	1.11	0.966	0.769
NCI-H1703	0.532	0.666	0.261	0.178					0.239	0.232	0.236	0.254					0.444	0.426	0.443	0.407
NCI-H1793					0.277	0.329	0.272	0.252	0.323	0.31	0.307	0.284	0.474	0.514	0.344	0.317	0.87	1.02	0.791	0.766
NCI-H2342					0.58	0.51	0.469	0.473					0.369	0.296	0.282	0.276	0.444	0.471	0.386	0.353
SW 900					0.582		0.532	0.423					0.573	0.636	0.531	0.476	0.79		0.874	0.885
